According to US20230286958A1, “PLASMA KALLIKREIN INHIBITORS” (Merck Sharp & Dohme LLC, priority 2020, published 2023):

How the values were obtained:
[1] = target: human Factor XIa (Homo sapiens (Human), UniProt P03951); experiment: Factor XIa Assay (fluorogenic substrate GPR-AFC); format: biochemical; conditions: Factor XIa (FXIa)
Protocol: (§1) The effectiveness of a compound of the present invention as an inhibitor of Coagulation Factor XIa can be determined using a relevant purified serine protease, and an appropriate synthetic substrate. The rate of hydrolysis of the chromogenic or fluorogenic substrate by the relevant serine protease was measured both in the absence and presence of compounds of the present invention. Assays were conducted at room temperature or at 37° C. […] A decrease in the rate of fluorescence change in the presence of inhibitor is indicative of enzyme inhibition. Such methods are known to one skilled in the art. The results of this assay are expressed as the half-maximal inhibitory concentrations (IC50), or the inhibitory constant, Ki.
Compounds were pre-incubated for 30 minutes at 25° C. with human (0.04 nM) Factor XIa in 50 mM HEPES buffer with 150 mM sodium chloride, 5 mM calcium chloride, 0.1% PEG 8000, pH 7.4. […] The % inhibition for each data point was calculated from the data and analyzed using the log (inhibitor) vs. response four parameters equation to determine the half-maximal inhibitory concentrations (IC50). The IC50 were converted to equilibrium inhibitory constants (Ki) using the Cheng-Prusoff equation.

[2] = target: Human plasma kallikrein (Homo sapiens (Human), UniProt P03952); experiment: Kallikrein Assay (fluorogenic substrate Acetyl-K-P-R-AFC); format: biochemical; conditions: Plasma Kallikrein (PKal)
Protocol: as §1, with “Kallikrein” for “Coagulation Factor XIa”
Kallikrein determinations were made in 50 mM HEPES buffer at pH 7.4 containing 150 mM NaCl, 5 mM CaC12, and 0.1% PEG 8000 (polyethylene glycol; Fisher Scientific). Determinations were made using purified Human plasma kallikrein at a final concentration of 0.5 nM (Enzyme Research Laboratories) and the synthetic substrate, Acetyl-K-P-R-AFC (Sigma # C6608) at a concentration of […].
Times required to achieve equilibration between enzyme and inhibitor were determined in control experiments. […] IC50 was determined by inflection point from a four parameter logistic curve fit. Ki was calculated using the Cheng Prusoff equation, Ki = IC50/(1+([S]/Km)).

Sequence of Human plasma kallikrein (P03952 391-638): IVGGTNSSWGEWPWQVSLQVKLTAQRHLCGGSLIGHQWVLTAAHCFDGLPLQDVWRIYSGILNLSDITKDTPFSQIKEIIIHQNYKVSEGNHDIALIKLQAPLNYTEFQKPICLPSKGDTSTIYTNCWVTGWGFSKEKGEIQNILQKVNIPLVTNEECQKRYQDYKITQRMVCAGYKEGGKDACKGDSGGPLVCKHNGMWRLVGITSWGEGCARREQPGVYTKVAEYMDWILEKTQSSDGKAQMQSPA
Sequence of Human plasma kallikrein (P03952 20-390 partner): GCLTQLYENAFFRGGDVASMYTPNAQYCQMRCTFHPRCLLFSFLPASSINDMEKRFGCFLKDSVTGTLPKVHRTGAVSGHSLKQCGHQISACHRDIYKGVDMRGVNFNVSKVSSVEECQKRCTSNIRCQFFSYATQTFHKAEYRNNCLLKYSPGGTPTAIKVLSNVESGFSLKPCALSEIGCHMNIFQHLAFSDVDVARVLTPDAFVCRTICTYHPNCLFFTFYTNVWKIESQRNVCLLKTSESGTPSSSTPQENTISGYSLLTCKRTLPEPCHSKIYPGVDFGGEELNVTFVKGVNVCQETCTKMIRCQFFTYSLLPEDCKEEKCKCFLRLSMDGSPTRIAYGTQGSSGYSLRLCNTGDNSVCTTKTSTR
Sequence of human Factor XIa (P03951 388-625 limits assumed): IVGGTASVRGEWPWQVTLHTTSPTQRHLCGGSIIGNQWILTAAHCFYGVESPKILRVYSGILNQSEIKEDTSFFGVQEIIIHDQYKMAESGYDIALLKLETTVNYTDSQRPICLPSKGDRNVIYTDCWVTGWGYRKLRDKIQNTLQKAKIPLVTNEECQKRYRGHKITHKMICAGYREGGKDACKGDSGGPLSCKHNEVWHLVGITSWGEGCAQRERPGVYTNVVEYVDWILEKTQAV
Sequence of human Factor XIa (P03951 19-387 partner limits assumed): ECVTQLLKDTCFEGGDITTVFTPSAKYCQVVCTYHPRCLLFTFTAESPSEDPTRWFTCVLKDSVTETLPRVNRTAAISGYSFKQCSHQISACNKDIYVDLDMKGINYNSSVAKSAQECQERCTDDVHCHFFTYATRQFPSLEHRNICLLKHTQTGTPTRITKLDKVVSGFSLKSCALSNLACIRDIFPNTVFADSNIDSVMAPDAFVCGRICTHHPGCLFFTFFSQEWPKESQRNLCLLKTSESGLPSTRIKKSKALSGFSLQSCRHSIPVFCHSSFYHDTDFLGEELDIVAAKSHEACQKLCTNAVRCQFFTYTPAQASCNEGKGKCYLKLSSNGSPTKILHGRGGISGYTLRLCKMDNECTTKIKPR

Row | Molecule | IC50 [1] [nM] | IC50 [2] [nM]
1 | 6-(3-Chloro-2-fluoro-6-(methylsulfonyl)phenyl)-N-(1-((S or R)-1-(4-methyl-2-((1R,SS)-2-oxo-3-azabicyclo[3.1.0]hexan-3-yl)pyrimidin-5-yl)ethyl)- 1H-pyrazol-4-yl)pyrazine-2-carboxamide [Example 86] | > 10000 | 36
2 | Cc1nc(C(C)n2cc(NC(=O)c3nc(-c4c(C(F)F)ccc(Cl)c4F)cnc3COC(C)(C)C)cn2)cnc1N1C[C@H]2C[C@H]2C1=O (mixture of isomers) [Example 196, 3-(tert-Butoxymethyl)-6-(3-chloro-6-(difluoromethyl)-2-fluorophenyl)-N-(1-((S and R)-1-(6-methyl-5-((1R,5S)-2-oxo-3-azabicyclo[3.1.0]hexan-3-yl)pyrazin-2-yl)ethyl)-1H-pyrazol-4-yl)pyrazine-2-carboxamide] | 2090 | 0.9
3 | Cc1cc(C(C)n2cc(NC(=O)c3nc(-c4c(OC(F)F)ccc(Cl)c4F)cnc3COC(C)(C)C)cn2)cnc1N1C[C@H]2C[C@H]2C1=O (mixture of isomers) [Example 228, 3-(tert-Butoxymethyl)-6-(3-chloro-6-(difluoromethoxy)-2-fluorophenyl)-N-(1-((R and S)-1-(5-methyl-6-((1R,5S)-2-oxo-3-azabicyclo[3.1.0]hexan-3-yl)pyridin-3-yl)ethyl)-1H-pyrazol-4-yl)pyrazine-2-carboxamide] | 602 | 1.6
4 | Cc1nc(C(C)n2cc(NC(=O)c3cncc(-c4c(C(F)F)ccc(Cl)c4F)n3)cn2)ncc1N1C[C@H]2C[C@H]2C1=O (single isomer, unassigned) [Example 3, 6-(3-Chloro-6-(difluoromethyl)-2-fluorophenyl)-N-(1-((S or R)-1-(4-methyl-5-((1R,5S)-2-oxo-3-azabicyclo[3.1.0]hexan-3-yl)pyrimidin-2-yl)ethyl)-1H-pyrazol-4-yl)pyrazine-2-carboxamide] | > 10000 | 1
5 | Cc1nc(C(C)n2cc(NC(=O)c3cncc(-c4c(C(F)F)ccc(Cl)c4F)n3)cn2)ncc1N1C[C@H]2C[C@H]2C1=O (single isomer, unassigned) [Example 4, 6-(3-Chloro-6-(difluoromethyl)-2-fluorophenyl)-N-(1-((R or S)-1-(4-methyl-5-((1R,5S)-2-oxo-3-azabicyclo[3.1.0]hexan-3-yl)pyrimidin-2-yl)ethyl)-1H-pyrazol-4-yl)pyrazine-2-carboxamide] | > 10000 | 16.8
6 | CC(c1ncc(N2C[C@H]3C[C@H]3C2=O)cn1)n1cc(NC(=O)c2cncc(-c3c(C(F)F)ccc(Cl)c3F)n2)cn1 (single isomer, unassigned) [Example 5, 6-(3-Chloro-6-(difluoromethyl)-2-fluorophenyl)-N-(1-((S or R)-1-(5-((1R,5S)-2-oxo-3-azabicyclo[3.1.0]hexan-3-yl)pyrimidin-2-yl)ethyl)-1H-pyrazol-4-yl)pyrazine-2-carboxamide] | > 10000 | 17.2
7 | Cc1ncc(-c2c(C(F)F)ccc(Cl)c2F)nc1C(=O)Nc1cnn(C(C)c2ncc(N3C[C@H]4C[C@H]4C3=O)cn2)c1 (single isomer, unassigned) [Example 6, 6-(3-Chloro-6-(difluoromethyl)-2-fluorophenyl)-3-methyl-N-(1-((R or S)-1-(5-((1R,5S)-2-oxo-3-azabicyclo[3.1.0]hexan-3-yl)pyrimidin-2-yl)ethyl)-1H-pyrazol-4-yl)pyrazine-2-carboxamide] | > 10000 | 0.9
8 | CC(c1ccc(N2CC3CC3C2=O)nc1)n1cc(NC(=O)c2cncc(-c3c(C(F)F)ccc(Cl)c3F)n2)cn1 (single isomer, unassigned) [Example 10, 6-(3-Chloro-6-(difluoromethyl)-2-fluorophenyl)-N-(1-((S or R)-1-(6-((1R,5S or 1S,5R)-2-oxo-3-azabicyclo[3.1.0]hexan-3-yl)pyridin-3-yl)ethyl)-1H-pyrazol-4-yl)pyrazine-2-carboxamide] | > 10000 | 16.8
9 | CC(c1ccc(N2CC3CC3C2=O)nc1)n1cc(NC(=O)c2cncc(-c3c(C(F)F)ccc(Cl)c3F)n2)cn1 (single isomer, unassigned) [Example 11, 6-(3-Chloro-6-(difluoromethyl)-2-fluorophenyl)-N-(1-((R or S)-1-(6-((1R,5S or 1S,5R)-2-oxo-3-azabicyclo[3.1.0]hexan-3-yl)pyridin-3-yl)ethyl)-1H-pyrazol-4-yl)pyrazine-2-carboxamide] | > 10000 | 17.2

Next, values leading:

Row | IC50 [1] [nM] | IC50 [2] [nM] | Molecule
10 | > 10000 | 6.2 | CC(c1cnc(N2Cc3cccnc3C2=O)nc1)n1cc(NC(=O)c2cncc(-c3c(C(F)F)ccc(Cl)c3F)n2)cn1 (racemic) [Example 26, (S and R)-6-(3-Chloro-6-(difluoromethyl)-2-fluorophenyl)-N-(1-(1-(2-(7-oxo-5,7-dihydro-6H-pyrrolo[3,4-b]pyridin-6-yl)pyrimidin-5-yl)ethyl)-1H-pyrazol-4-yl)pyrazine-2-carboxamide]
11 | 5650 | 14.8 | CC(c1cnc(N2Cc3ncccc3C2=O)nc1)n1cc(NC(=O)c2cncc(-c3c(C(F)F)ccc(Cl)c3F)n2)cn1 (racemic) [Example 27, (S and R)-6-(3-Chloro-6-(difluoromethyl)-2-fluorophenyl)-N(1-(1-(2-(5-oxo-5,7-dihydro-6H-pyrrolo[3,4-b]pyridin-6-yl)pyrimidin-5-yl)ethyl)-1H-pyrazol-4-yl)pyrazine-2-carboxamide]
12 | > 10000 | 47.4 | CC(c1cnc(N2CCN(C)C2=O)nc1)n1cc(NC(=O)c2cncc(-c3c(C(F)F)ccc(Cl)c3F)n2)cn1 (racemic) [Example 28, (S and R)-6-(3-Chloro-6-(difluoromethyl)-2-fluorophenyl)-N-(1-(1-(2-(3-methyl-2-oxoimidazolidin-1-yl)pyrimidin-5-yl)ethyl)-1H-pyrazol-4-yl)pyrazine-2-carboxamide]
13 | > 10000 | 10 | CC(c1ccc(N2C[C@H]3C[C@H]3C2=O)cc1)n1cc(NC(=O)c2cncc(-c3c(C(F)F)ccc(Cl)c3F)n2)cn1 (mixture of isomers) [Example 69, 6-(3-Chloro-6-(difluoromethyl)-2-fluorophenyl)-N-(1-((S and R)-1-(4-((1R,5S)-2-oxo-3-azabicyclo[3.1.0]hexan-3-yl)phenyl)ethyl)-1H-pyrazol-4-yl)pyrazine-2-carboxamide]
14 | 3950 | 10.8 | Cc1ncc(-c2c(C(F)F)ccc(Cl)c2F)nc1C(=O)Nc1cnn(C(C)c2cnc(N3C[C@H]4C[C@H]4C3=O)c(NC(=O)OC(C)(C)C)c2)c1 (mixture of isomers) [Example 96, tert-Butyl (5-((S and R)-1-(4-(6-(3-chloro-6-(difluoromethyl)-2-fluorophenyl)-3-methylpyrazine-2-carboxamido)-1H-pyrazol-1-yl)ethyl)-2-((1R,5S)-2-oxo-3-azabicyclo[3.1.0]hexan-3-yl)pyridin-3-yl)carbamate]
15 | 944 | 1.2 | CCc1ncc(-c2c(C(F)F)ccc(Cl)c2F)nc1C(=O)Nc1cnn(C(C)c2cnc(N3C[C@H]4C[C@H]4C3=O)c(C)c2)c1 (mixture of isomers) [Example 214, 6-(3-Chloro-6-(difluoromethyl)-2-fluorophenyl)-3-ethyl-N-(1-((S and R)-1-(5-methyl-6-((1R,5S)-2-oxo-3-azabicyclo[3.1.0]hexan-3-yl)pyridin-3-yl)ethyl)-1H-pyrazol-4-yl)pyrazine-2-carboxamide]
16 |  | 0.2 | Cc1cc(C(C)n2cc(NC(=O)c3nc(-c4c(C(F)F)ccc(Cl)c4F)cnc3CO)cn2)cnc1N1C[C@H]2C[C@H]2C1=O (single isomer, unassigned) [Example 199, 6-(3-Chloro-6-(difluoromethyl)-2-fluorophenyl)-3-(hydroxymethyl)-N-(1-((S or R)-1-(5-methyl-6-((1R,5S)-2-oxo-3-azabicyclo[3.1.0]hexan-3-yl)pyridin-3-yl)ethyl)-1H-pyrazol-4-yl)pyrazine-2-carboxamide]
17 |  | 0.2 | Cc1cc(C(C)n2cc(NC(=O)c3nc(-c4c(C(F)F)ccc(Cl)c4F)cnc3CO)cn2)cnc1N1C[C@H]2C[C@H]2C1=O (single isomer, unassigned) [Example 200, 6-(3-Chloro-6-(difluoromethyl)-2-fluorophenyl)-3-(hydroxymethyl)-N-(1-((R or S)-1-(5-methyl-6-((1R,5S)-2-oxo-3-azabicyclo[3.1.0]hexan-3-yl)pyridin-3-yl)ethyl)-1H-pyrazol-4-yl)pyrazine-2-carboxamide]
